Calls of active or inactive are those of the source. No cut-off for these calls is given here.

A short description of assay [1]: Inhibition of FGF2 deprivation-induced ROS level in vascular endothelial cells at 30 ug/ml after 24 hrs relative to control. The format is functional, Homo sapiens, Endothelial cell.
In assay [2] the test system is Endothelial cell. Briefly: Prevention of serum deprivation-induced reduction of vascular endothelial cell viability after 24 hrs by MTT assay. The format is functional, cell-based. Conditions: Homo sapiens.
Assay [3] in a line: Inhibition of serum deprivation-induced vascular endothelial cell apoptosis assessed as apoptotic cell proportion at 40 ug/ml after 24 hrs by TUNEL assay. Type of assay: functional, Homo sapiens. The arrangement: scale not given: the % may be the effect or the level left.
Assay [4] relates to Endothelial cell. Briefly: Prevention of FGF2 deprivation-induced reduction of vascular endothelial cell viability after 24 hrs by MTT assay. The format is functional, cell-based. Conditions: Homo sapiens.
Assay [5] is described as follows: Inhibition of serum deprivation-induced ROS level in vascular endothelial cells at 30 ug/ml after 24 hrs relative to control. The format is functional, Homo sapiens, Endothelial cell.
For assay [6], the system named is Endothelial cell. In words: Inhibition of DNA fragmentation in vascular endothelial cells at 40 ug/ml after 24 hrs. Type of assay: functional, cell-based. Conditions: Homo sapiens.
Assay [7] is described as follows: Inhibition of FGF2 deprivation-induced integrin beta-4 expression in vascular endothelial cells at 40 ug/ml after 24 hrs relative to control. The format is functional, Homo sapiens, Endothelial cell.
Assay [8] can be described thus: Inhibition of FGF2 deprivation-induced vascular endothelial cell apoptosis assessed as apoptotic cell proportion at 40 ug/ml after 24 hrs by TUNEL assay. The format is functional, Homo sapiens. Further details: scale not given: the % may be the effect or the level left.
Assay [9] has as its system Endothelial cell. Briefly: Prevention of FGF2 deprivation-induced reduction of vascular endothelial cell viability after 48 hrs by MTT assay. The format is functional, cell-based. The settings on record: Homo sapiens.
Assay [10] is described as follows: Inhibition of serum deprivation-induced integrin beta-4 expression in vascular endothelial cells at 40 ug/ml after 24 hrs relative to control. Type of assay: functional, Homo sapiens, Endothelial cell.
Assay [11] deals with Endothelial cell. Briefly: Prevention of serum deprivation-induced reduction of vascular endothelial cell viability after 48 hrs by MTT assay. The format is functional, cell-based. The settings on record: Homo sapiens.

For the compound `O=C1OC(COc2ccccc2[N+](=O)[O-])CC1Cc1ccccc1` (stereo unspecified), the Activity was 7.95 in assay [1]; “Dose-dependent effect” in the assay on Endothelial cell [2]; 9.89% in assay [3]; “Dose-dependent effect” with Endothelial cell [4]; 7.95 in assay [5]; 33.8 in assay [7]. The Activity is 9.89% in assay [8], “Dose-dependent effect” in the assay with Endothelial cell [9], 33.8 in assay [10] and “Dose-dependent effect” in the assay on Endothelial cell [11]. The result with Endothelial cell [6] was Active.

Values taken from ChEMBL document CHEMBL1138394, “A novel butyrolactone derivative inhibited apoptosis and depressed integrin beta4 expression in vascular endothelial cells” (2007).
